The term pIC50 denotes −log10 of the IC50, conventionally taken in molar units.

pIC50: −log10 of the molar value. Calls of active or inactive are those of the source. Bounds are passed on as bounds.

The target in experiment [1] is T1, NAD-dependent protein deacetylase sirtuin-2 (Homo sapiens) (UniProt Q8IXJ6).
T1 sequence (whole entry): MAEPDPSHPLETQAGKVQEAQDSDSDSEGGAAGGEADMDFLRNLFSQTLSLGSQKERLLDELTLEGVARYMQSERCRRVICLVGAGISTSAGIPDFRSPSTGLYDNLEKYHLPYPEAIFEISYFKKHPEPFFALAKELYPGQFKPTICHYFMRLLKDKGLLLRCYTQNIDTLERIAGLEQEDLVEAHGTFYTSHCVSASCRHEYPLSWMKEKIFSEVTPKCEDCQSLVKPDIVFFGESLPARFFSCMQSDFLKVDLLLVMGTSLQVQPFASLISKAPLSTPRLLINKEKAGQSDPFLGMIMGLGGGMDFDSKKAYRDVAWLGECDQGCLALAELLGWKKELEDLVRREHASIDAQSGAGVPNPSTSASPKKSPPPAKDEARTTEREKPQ
The settings on record: at 10 µM.
Description: Inhibition of human recombinant SIRT2 using Fluor-de-Lys as substrate at 10 uM incubated for 60 mins prior to substrate addition measured after 60 mins by fluorometric analysis

Experiment [2] has as its target T2, NAD-dependent protein deacetylase sirtuin-1 (Homo sapiens) (UniProt Q96EB6).
T2 sequence (whole entry): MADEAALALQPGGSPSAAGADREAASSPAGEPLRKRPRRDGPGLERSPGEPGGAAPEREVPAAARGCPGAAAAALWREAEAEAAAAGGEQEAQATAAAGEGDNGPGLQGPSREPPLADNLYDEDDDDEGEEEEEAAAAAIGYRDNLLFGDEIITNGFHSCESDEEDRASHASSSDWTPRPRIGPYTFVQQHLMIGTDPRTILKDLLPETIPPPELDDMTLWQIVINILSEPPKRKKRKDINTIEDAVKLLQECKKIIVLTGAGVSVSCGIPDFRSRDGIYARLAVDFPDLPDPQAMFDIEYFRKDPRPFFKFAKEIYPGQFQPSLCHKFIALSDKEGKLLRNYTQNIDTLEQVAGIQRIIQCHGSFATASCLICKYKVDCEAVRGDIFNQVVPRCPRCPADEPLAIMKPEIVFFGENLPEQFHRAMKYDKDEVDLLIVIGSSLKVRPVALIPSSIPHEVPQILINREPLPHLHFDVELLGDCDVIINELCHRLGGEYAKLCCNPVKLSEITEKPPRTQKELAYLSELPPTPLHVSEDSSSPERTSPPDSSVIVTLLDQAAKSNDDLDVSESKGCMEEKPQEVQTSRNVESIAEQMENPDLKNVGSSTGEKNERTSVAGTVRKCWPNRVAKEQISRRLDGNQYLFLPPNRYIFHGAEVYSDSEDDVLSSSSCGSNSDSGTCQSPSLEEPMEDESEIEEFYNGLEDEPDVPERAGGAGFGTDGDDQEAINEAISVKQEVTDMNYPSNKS
Description: Inhibition of human recombinant SIRT1 using Fluor-de-Lys as substrate at 10 uM incubated for 60 mins prior to substrate addition measured after 60 mins by fluorometric analysis.

Experiment [3] deals with T3, NAD-dependent protein deacetylase sirtuin-3, mitochondrial (Homo sapiens, UniProt Q9NTG7).
T3 sequence (Q9NTG7 whole entry): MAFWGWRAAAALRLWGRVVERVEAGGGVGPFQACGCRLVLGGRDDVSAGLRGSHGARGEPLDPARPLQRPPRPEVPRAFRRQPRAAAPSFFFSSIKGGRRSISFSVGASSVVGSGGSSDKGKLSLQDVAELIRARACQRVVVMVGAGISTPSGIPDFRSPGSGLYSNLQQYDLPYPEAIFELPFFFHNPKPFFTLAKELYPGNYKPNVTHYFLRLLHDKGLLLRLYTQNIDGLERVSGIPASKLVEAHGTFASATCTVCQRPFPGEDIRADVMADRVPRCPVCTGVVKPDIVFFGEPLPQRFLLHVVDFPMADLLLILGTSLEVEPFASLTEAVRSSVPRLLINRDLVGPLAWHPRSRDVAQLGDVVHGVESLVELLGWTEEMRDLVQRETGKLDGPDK
Description: Inhibition of human recombinant SIRT3 using Fluor-de-Lys as substrate incubated for 60 mins prior to substrate addition measured after 60 mins by fluorometric analysis.

The target of experiment [4] is T4, NAD-dependent protein deacetylase sirtuin-3, mitochondrial (Homo sapiens) (UniProt Q9NTG7).
T4 sequence (whole entry): T3 sequence (Q9NTG7 whole entry)
Description: Inhibition of human recombinant SIRT3 using Fluor-de-Lys as substrate at 10 uM incubated for 60 mins prior to substrate addition measured after 60 mins by fluorometric analysis.

The target of experiment [5] is T5, NAD-dependent protein deacetylase sirtuin-2 (Homo sapiens, UniProt Q8IXJ6).
T5 sequence (Q8IXJ6 whole entry): T1 sequence (whole entry)
Description: Inhibition of human recombinant SIRT2 using Fluor-de-Lys as substrate incubated for 60 mins prior to substrate addition measured after 60 mins by fluorometric analysis.

In experiment [6] the target is T6, NAD-dependent protein deacetylase sirtuin-1 (Homo sapiens, UniProt Q96EB6).
T6 sequence (Q96EB6 whole entry): T2 sequence (whole entry)
Description: Inhibition of human recombinant SIRT1 using Fluor-de-Lys as substrate incubated for 60 mins prior to substrate addition measured after 60 mins by fluorometric analysis.

Regarding `Cc1cccc(C)c1NC(=O)CN=[N+]=[N-]`, the inhibition result in experiment [1] was “Active”.
Same read-out and setting: the entry for `Cc1ccccc1CCN=[N+]=[N-]` is “Active”.
In the case of `[N-]=[N+]=Nc1ccc(O)cc1`, the inhibition result in experiment [1] was “Active”.
Turning to `[N-]=[N+]=NCc1ccc(-c2ccccc2)cc1`, the inhibition result in experiment [1] is “Active”.
As for `[N-]=[N+]=NCCc1ccccc1Cl`, the inhibition entry in experiment [1] was “Active”.
As for `[N-]=[N+]=NCCN1CCOCC1`, the inhibition result in experiment [1] was “Active”.
Consider `[N-]=[N+]=N/C=C/c1ccccc1`, for which, in experiment [1], the inhibition entry was “Active”.
Regarding `[N-]=[N+]=NCCc1ccccc1`, the inhibition result in experiment [1] was “Active”.
The same measure, in the same setting: the entry for `[N-]=[N+]=Nc1ccccc1` is “Active”; for `[N-]=[N+]=NCCc1cccc2ccccc12` it is “Active”; for `[N-]=[N+]=NCC12CC3CC(CC(C3)C1)C2` it is “Active”.
In the case of `COc1ccc(CN=[N+]=[N-])cc1`, in experiment [1], the inhibition entry is “Active”.
Regarding `[N-]=[N+]=NCCc1ccc(F)cc1`, the inhibition result in experiment [1] is “Active”.
`COc1ccc(CCN=[N+]=[N-])cc1`: the inhibition result in experiment [1] was “Active”.
Regarding `C#Cc1ccc(Nc2ccccc2C(N)=O)cc1`, the inhibition result in experiment [1] is “Active”.
On to `[N-]=[N+]=NCCc1c[nH]c2ccccc12`, for which the inhibition entry in experiment [1] was “Active”.
For `[N-]=[N+]=NCCCc1ccccc1`, the inhibition result in experiment [1] is “Active”.
Take `Cc1ccc(N=[N+]=[N-])cc1`: the inhibition entry in experiment [1] is “Active”.
Turning to `COc1ccccc1CCN=[N+]=[N-]`, in experiment [1], the inhibition result is “Active”.
Same read-out and setting: the entry for `[N-]=[N+]=NC[S+]([O-])c1ccccc1` (stereo unspecified) is “Active”.
As for `[N-]=[N+]=NCCC12CC3CC(CC(C3)C1)C2`, in experiment [1], the inhibition result was “Active”.
Still for that read-out and setting: then `[N-]=[N+]=NCCc1cccc(F)c1`, with “Active”; and `[N-]=[N+]=NCc1ccc2ccccc2c1`, with “Active”.
Consider `[N-]=[N+]=NCC1CCCCC1`, for which, in experiment [1], the inhibition entry is “Active”.
In the case of `Cc1ncsc1CCN=[N+]=[N-]`, in experiment [1], the inhibition entry was “Active”.
As for `[N-]=[N+]=Nc1ccc(N)cc1`, the inhibition entry in experiment [1] is “Active”.
Regarding `[N-]=[N+]=NCCc1ccccn1`, in experiment [1], the inhibition result was “Active”.
For the compound `Cc1cccc(CCN=[N+]=[N-])c1`, the inhibition entry in experiment [1] was “Active”.
Same read-out and setting: then `[N-]=[N+]=NCCc1ccc(Cl)cc1`, with “Active”; and `[N-]=[N+]=NCS(=O)(=O)c1ccccc1`, with “Active”; and `N#C/C(=C\c1ccc(-c2cc(Cl)ccc2Cl)o1)C(=O)Nc1cccc2ncccc12`, with “Active”.
Regarding `Cc1ccc(N=[N+]=[N-])cc1C`, the inhibition entry in experiment [1] is “Active”.
On the same count and under the same terms, the entry for `[N-]=[N+]=NCCC1CCCC1` is “Active”.
As to `[N-]=[N+]=NCCC1CCCCC1`, the inhibition entry in experiment [1] is “Active”.
For `[N-]=[N+]=NCC(=O)Nc1ccc(F)cc1`, in experiment [1], the inhibition result was “Active”.
Same read-out and setting: the entry for `[N-]=[N+]=NCSc1ccccc1` is “Active”.
Turning to `NC(=O)c1ccccc1Nc1cccc(-c2cn(CCC3CCCC3)nn2)c1`, the inhibition entry in experiment [2] and in experiment [4] was “inactive” throughout. Besides, the figures for the pIC50 in experiment [3], in experiment [5] and in experiment [6] were < 4.00, 5.28 and < 4.00, respectively. In addition, in experiment [1], the inhibition entry was “Active”.
Turning to `COc1cccc(CCN=[N+]=[N-])c1`, the inhibition result in experiment [1] was “Active”.
For `Cc1ccc(CCN=[N+]=[N-])cc1`, in experiment [1], the inhibition result is “Active”.
`[N-]=[N+]=Nc1ccc(F)cc1`: the inhibition result in experiment [1] is “Active”.
`NC(=O)c1ccccc1Nc1ccc(-c2cn(Cc3ccccc3)nn2)cc1`: the inhibition result in experiment [2] and in experiment [4] was “inactive” in each case. In addition, the pIC50 in experiment [3] was < 4.00; in experiment [5], 5.20; in experiment [6], < 4.00. The inhibition entry in experiment [1] was “Active”.
Consider `[N-]=[N+]=NCC(=O)c1ccccc1`, for which, in experiment [1], the inhibition result is “Active”.
With `[N-]=[N+]=NCCc1ccc([N+](=O)[O-])cc1`, the inhibition entry in experiment [1] was “Active”.
Regarding `[N-]=[N+]=NCCc1ccccc1[N+](=O)[O-]`, in experiment [1], the inhibition entry is “Active”.
On to `[N-]=[N+]=Nc1ccc(Br)cc1`, for which, in experiment [1], the inhibition entry was “Active”.
As to `[N-]=[N+]=NCCc1ccc(C(F)(F)F)cc1`, in experiment [1], the inhibition result is “Active”.
Regarding `[N-]=[N+]=NCCc1cccc(C(F)(F)F)c1`, in experiment [1], the inhibition result is “Active”.
Still for that read-out and setting: then `[N-]=[N+]=NCCc1ccccc1F`, with “Active”; and `COc1ccc(N=[N+]=[N-])cc1`, with “Active”.
On to `[N-]=[N+]=NCCc1ccsc1`, for which, in experiment [1], the inhibition entry is “Active”.
For `[N-]=[N+]=NCc1ccccc1`, the inhibition result in experiment [1] is “Active”.
Take `[N-]=[N+]=Nc1ccccc1-c1ccccc1`: the inhibition entry in experiment [1] was “Active”.
Take `[N-]=[N+]=NCCc1ccc2ccccc2c1`: the inhibition entry in experiment [1] is “Active”.
As to `C#Cc1cccc(Nc2ccccc2C(N)=O)c1`, the inhibition result in experiment [1] was “Active”.
In the case of `[N-]=[N+]=Nc1ccc(I)cc1`, the inhibition result in experiment [1] is “Active”.
As for `[N-]=[N+]=NCCCCCc1ccccc1`, the inhibition result in experiment [1] is “Active”.
With `[N-]=[N+]=NCCc1cccc(Cl)c1`, the inhibition entry in experiment [1] is “Active”.
On to `[N-]=[N+]=NCCc1ccccc1C(F)(F)F`, for which the inhibition entry in experiment [1] is “Active”.
Consider `[N-]=[N+]=NCc1cccc(-c2ccccc2)c1`, for which the inhibition entry in experiment [1] was “Active”.
Turning to `[N-]=[N+]=NCc1cccc2ccccc12`, the inhibition result in experiment [1] was “Active”.
On to `[N-]=[N+]=Nc1cccc2ccccc12`, for which the inhibition entry in experiment [1] was “Active”.
